According to article PMC9055250, “Design, synthesis, and biological evaluation of new 6,N^2-diaryl-1,3,5-triazine-2,4-diamines as anticancer agents selectively targeting triple negative breast cancer cells” (RSC Advances, 2020):
Read-outs that look alike come from different tables or passages of the source.

What was measured:
[1] = tested on: MDA-MB231 breast cancer cells; assay: MTT in vitro cytotoxicity assay, MDA-MB231; type: cell-based; details: for viability at 10 µM / GI50: Homo sapiens, MDA-MB-231; for viability at 10 µM: read-out: Cell viability (%) MDA-MB231
Method: (§1) The synthesized compounds were tested against three breast tumor cell lines (MDA-MB231, SKBR-3 and MCF-7) and epithelial breast cell line (MCF-10A) by the MTT colorimetric assay.[29,30] All cells were obtained from the American Type Culture Collection. The cancerous cell lines were grown in Dulbecco's modified eagle medium (DMEM) supplemented with 10% fetal bovine serum (FBS) and 1% pen-strep antibiotic. The MCF-10A human epithelial breast cell line was grown in the complete mammary epithelial growth medium containing horse serum 5%, epithelial growth factor 20 ng mL^−1, hydrocortisone […], cholera toxin 100 ng mL^−1, insulin 10 μg mL^−1, and pen-step antibiotic.[31] For the cytotoxic assay, 20 to 75 × 10^3 cells per mL (based on the doubling time for each cell line) were seeded in 96-well plates and the plates were incubated overnight in a humidified air atmosphere at 37 °C in 5% CO2 incubator.
(§2) The cells were then treated with compounds at different concentrations. After 72 h of incubation, the MTT (0.5 mg mL^−1) was added to wells, followed by 4 h of incubation. The culture medium was then removed and DMSO (100 μL per well) was added and the absorbance values were measured at 570 nm using the multi-well Tecan NanoQuant, Infinite m200 Pro plate reader. Growth inhibitory values (GI50) were calculated using GraphPad Prism 7 (GraphPad Software, San Diego, USA) by nonlinear regression analysis. Three independent experiments were carried out and the data was expressed in mean ± standard deviation (SD). The concentration–response curves used for the GI50 calculation are available in ESI. ^†

[2] = tested on: SKBR-3 breast cancer cells; assay: MTT in vitro cytotoxicity assay, SKBR-3; type: cell-based; details: Homo sapiens; for viability at 10 µM: SK-BR-3, 10 μM, 72 h, read-out: Cell viability (%) SKBR-3; for GI50: SK-BR-3, 72 h, read-out: GI50 ± SD SKBR-3
Method: as §1, §2

[3] = tested on: MCF-7 breast cancer cells; assay: MTT in vitro cytotoxicity assay, MCF-7; type: cell-based; details: Homo sapiens; for viability at 10 µM: MCF7, 10 μM, 72 h, read-out: Cell viability (%) MCF-7; for GI50: MCF7, 72 h, read-out: GI50 ± SD MCF-7
Method: as §1, §2

[4] = tested on: MCF-10A human epithelial breast cell line; assay: MTT in vitro cytotoxicity assay, MCF-10A; type: cell-based; details: 72 h, read-out: GI50 ± SD MCF-10A
Method: as §1, §2

[5] = tested on: MDA-MB231 breast cancer cells; assay: Time-dependent cytotoxicity (MTT); type: cell-based; details: for inhibition at 0.125 µM / growth inhibition at 125 nM, 12 h: MDA-MB231, 125 nM
Method: MDA-MB231 breast cancer cells were grown in DMEM supplemented with 10% FBS and 1% pen-strep antibiotic. The cells were seeded in 96-well plates (20 × 10^3 cells per mL) and the plates were incubated overnight in a humidified air atmosphere at 37 °C in 5% CO2 incubator. The cells were then treated with compounds 16 or 18 in concentrations ranging from 0.2 nM to 125 nM for 12, 24, 48, and 72 h. After specified time for each experiment, MTT (0.5 mg mL^−1) was added to wells, followed by 4 h of incubation. The culture medium was then removed and DMSO (100 μL per well) was added and the absorbance values were measured at 570 nm using the multi-well Tecan NanoQuant, Infinite m200 Pro plate reader. GI50 values were calculated using GraphPad Prism 7 (GraphPad Software, San Diego, USA) by nonlinear regression analysis. All the time-dependent experiments at different times were carried out using the same passage of MDA-MB231 cells. Three independent experiments were carried out and the data were expressed in mean ± standard deviation (SD).

[6] = tested on: MDA-MB231 cells; assay: Acridine orange/propidium iodide double staining, fluorescence microscopy; type: cell-based; details: MDA-MB231, 24 h after treatment; 16 at 125 and 250 nM, 18 at 2.5 and 5 nM
Method: Fluorescence microscopy was used to visualize the apoptosis in cancer cells with AO/PI staining.[20] MDA-MB231 cells were grown in 6-well plate (5 × 10^5 cells per well). […] One of the six wells was treated with 1% DMSO and served as a negative control, another well treated with methotrexate served as a positive control. After 24 h of incubation, the wells were washed with phosphate buffered saline (PBS) three times and 100 μL of AO (100 μg mL^−1 in PBS) and 25 μL of PI (100 μg mL^−1 in PBS) in 1 mL of media were added to each well. The plate was then observed under a motorized inverted fluorescent microscope (Eclipse Ti2-E, Nikon). Three independent experiments at each concentration were carried out.

[7] = tested on: MDA-MB231 cells; assay: Live cell imaging with AO/PI; type: cell-based; details: MDA-MB231, 10 μM, 4 h
Method: MDA-MB231 cells (1 × 10^6 cells) were seeded in a Petri dish and incubated overnight in a humidified air atmosphere at 37 °C in 5% CO2 incubator. Then, the Petri dish was washed with PBS three times and 300 μL of AO (100 μg mL^−1 in PBS) and 75 μL of PI (100 μg mL^−1 in PBS) in 3 mL of media were added to the Petri dish. The cells were treated with 10 μM of compound 18 and the dish was then transferred to motorized inverted fluorescent microscope (Eclipse Ti2-E, Nikon). The pictures were taken every 10 minutes for 4 h and intercalated into video (see ESI ^†).

[8] = 72 h, MTT, read-out: GI50 ± SD MDA-MB231
[9] = MDA-MB231, calculated from GI50, read-out: Experimental pGI50 (converted)
[10] = Homo sapiens, MDA-MB-231, 12 h, read-out: growth inhibition at 125 nM, 12 h
[11] = Homo sapiens, MDA-MB-231, MDA-MB231, 72 h, read-out: GI50 ± SD, 72 h
[12] = Homo sapiens, MDA-MB-231, MDA-MB231, 24 h, concentration used in Fig. 3

Compound	viability at 10 µM ([1]; 72 h, MTT)	GI50 [1, 8]	GI50 [1, 9]	viability at 10 µM [2]	GI50 [2]	viability at 10 µM [3]	GI50 [3]	GI50 [4]	inhibition at 0.125 µM [5, 10]	GI50 [5, 11]	growth inhibition at 125 nM, 12 h ([5]; 12 h)	cell morphology, AO/PI double staining [6]	melting point	further results
COc1cc(-c2nc(N)nc(Nc3ccc(Cl)cc3)n2)cc(OC)c1OC [Compound 16, N ^2-(4-Chlorophenyl)-6-(3,4,5-trimethoxyphenyl)-1,3,5-triazine-2,4-diamine]	20%	7 ± 0.01 nM	7.08 nM	48%	300 ± 40 nM	52%	12500 ± 200 nM	> 20000 nM	17%	7 ± 0.6 nM	no significant inhibition of the cell growth	signs of apoptosis	209 to 211 °C	inhibition at 0.125 µM ([5]; Homo sapiens, MDA-MB-231, 24 h, read-out: growth inhibition at 125 nM, 24 h): 61%; inhibition at 0.125 µM ([5]; Homo sapiens, MDA-MB-231, 48 h, read-out: growth inhibition at 125 nM, 48 h): 75%
COc1cc(-c2nc(N)nc(Nc3ccc(Br)cc3)n2)cc(OC)c1OC [Compound 17, N ^2-(4-Bromophenyl)-6-(3,4,5-trimethoxyphenyl)-1,3,5-triazine-2,4-diamine]	24%	8 ± 0.5 nM	7.94 nM	43%	170 ± 10 nM	48%	> 20000 nM	> 20000 nM	–	–	–	–	217 to 219 °C	–
COc1cc(-c2nc(N)nc(Nc3ccc(C)cc3)n2)cc(OC)c1OC [Compound 18, N ^2-(4-Methylphenyl)-6-(3,4,5-trimethoxyphenyl)-1,3,5-triazine-2,4-diamine]	14%	1 ± 0.01 nM	2 nM	37%	210 ± 10 nM	62%	> 20000 nM	> 20000 nM	15%	1 ± 0.02 nM	no significant inhibition of the cell growth	signs of apoptosis	–	fold more active than methotrexate ([1]; MDA-MB231): 10 fold; fold more potent than nilotinib ([1]; MDA-MB231): 40 fold; IC20 [5, 12]: 2.5 nM; IC50 [5, 12]: 5 nM; GI50 ([5]; Homo sapiens, MDA-MB-231, MDA-MB231, 24 h, read-out: GI50 ± SD, 24 h): 5 ± 0.1 nM; GI50 ([5]; Homo sapiens, MDA-MB-231, MDA-MB231, 48 h, read-out: GI50 ± SD, 48 h): 4 ± 0.3 nM; morphological changes in live cell imaging [7]: inducing apoptosis
COc1ccc(Nc2nc(N)nc(-c3cc(OC)c(OC)c(OC)c3)n2)cc1 [Compound 19, N ^2-(4-Methoxyphenyl)-6-(3,4,5-trimethoxyphenyl)-1,3,5-triazine-2,4-diamine]	20%	10 ± 1 nM	10 nM	48%	270 ± 20 nM	52%	> 20000 nM	> 20000 nM	–	–	–	–	195 to 197 °C	fold increase in antiproliferative activity over regioisomer ([1]; MDA-MB231, para- vs ortho-/meta-substituted ring B (13 vs 19, 14 vs 16, 15 vs 18)): 200 fold
COc1cc(-c2nc(N)nc(Nc3ccc(OC(F)(F)F)cc3)n2)cc(OC)c1OC [Compound 20, N ^2-(4-(Trifluoromethoxy)phenyl)-6-(3,4,5-trimethoxyphenyl)-1,3,5-triazine-2,4-diamine]	20%	1500 ± 100 nM	1480 nM	45%	5000 ± 350 nM	51%	> 20000 nM	> 20000 nM	–	–	–	–	179 to 181 °C	–
COc1cc(-c2nc(N)nc(Nc3ccc(C(C)C)cc3)n2)cc(OC)c1OC [Compound 21, N ^2-(4-Isopropylphenyl)-6-(3,4,5-trimethoxyphenyl)-1,3,5-triazine-2,4-diamine]	9%	40 ± 2 nM	39.8 nM	42%	1100 ± 50 nM	49%	10700 ± 1100 nM	> 20000 nM	–	–	–	–	190 to 192 °C	–
